Reference: patent US20090117406A1, “CONCENTRATE FOR FILM PRESERVATION” (priority 2006, published 2009)

What was measured:
[1] = system: Alternaria alternata DSM 62010 and Ulocladium consortial DSM 6201; experiment: Fungicide trial with weathering on plaster test pieces (VdL guideline 06), fungus mix 1; type: cell-based; details: rating after 21 days 0 or 1, for mixtures order of ppm follows order of active agents
Procedure: (§1) The sample to be tested is plaster. The untreated sample is equipped with the cited biocides or single active agents in different concentrations. […] For preparing the samples the plaster is equipped with biocides and from that test pieces are formed. For that purpose for each test piece 7 g plaster are weighed in a small plastic mould and spread evenly. For complete drying the plaster test pieces are stored for three days at room temperature. The prepared test bodies are put in 100 ml tap water each for three days the water being exchanged daily. Then a 15 h phase of drying follows in a circulation air cabinet at 50° C. and 60 circles/min. After three days of equi libration at room temperature the test pieces are sterilised superficially and brought in the biological test. The superficial sterilisation is carried directly before putting them on the nutritive substratum by a exposure to UV radiation on both sides each for 10 minutes under a mercury medium pressure radiator. The evaluations for fungus are carried out on malt extract agar (for example by Fluka). For mix 1 Alternaria alternata DSM 62010 and Ulocladium consortial DSM 6201 is used. For mix 2 Aspergillus niger DSM 1988, Penicillium expansum DSM 1282 and Trichoderma viride DSM 63064 is used. These are used as about 14 days old cultures on inclined agar tubes for producing suspension. For that purpose to each tube 3 ml sterile Ringer's solution are added, and then washed away with a sterile os (this corresponds with a germination index of about 10^8 to 10^9 KBE/ml [KBE=(Kolonie bildende Einheiten) units forming colonies]). […] The nutritive substratum with the put-on test pieces is injected with one of the listed fungus mixtures and incubated at room temperature. After 7, 14 and 21 days the test pieces are evaluated with respect to the fungus growth according to the following rating: 00=sample surface without fouling, with inhibitory aureole around test piece 0=sample surface without fouling, without inhibitory aureole around test piece […] […]

[2] = system: Aspergillus niger DSM 1988, Penicillium expansum DSM 1282 and Trichoderma viride DSM 63064; experiment: Fungicide trial with weathering on plaster test pieces (VdL guideline 06), fungus mix 2; type: cell-based; details: rating after 21 days 0 or 1, for mixtures order of ppm follows order of active agents
Procedure: as §1

Row | SMILES | ppm a.i. in plaster dosed additionally (minimal ppm concentration as fungus growth is obstructed clearly) [1] [ppm] | ppm a.i. in plaster dosed additionally (minimal ppm concentration as fungus growth is obstructed clearly) [2]
1 | N#Cc1c(Cl)c(Cl)c(Cl)c(C#N)c1Cl [CTL, 1,3-dicyano-2,4,5,6-tetrachlorbenzole] | 400 | 800 ppm
2 | CCCCCCCCn1sccc1=O [OIT, 2-octyl-2H-isothiazole-3-one] | 200 | >500(#) ppm
3 | CCCC1COC(Cn2cncn2)(c2ccc(Cl)cc2Cl)O1 (stereo not drawn) [Propiconazol, 1-[[2-(2,4-dichlorphenyl)-4-propyl-1,3-dioxolane-2-yl]methyl] 1 H-1,2,4-triazol] | 2000 | >2000(#) ppm
